Drawing on patent publication US9999622B2, “Pyrazolothiazole compound and medicine comprising same” (NIPPON SHINYAKU CO., LTD., priority 2014, dated 2018), this text covers IC50 for 15 molecules.

What all share (type): biochemical
The target in one experiment is T1, JAK2 (Homo sapiens, UniProt O60674).
T1 construct: purchased Carna Biosciences, Inc
Description: JAK tyrosine kinase inhibitory activity in the presence of 1 mM ATP (ELISA), JAK2. As for the experimental part: (§1) 1. Preparation of Test Compound
(§2) The test compound was dissolved in dimethyl sulfoxide (DMSO) to 10 mM and further diluted with DMSO to the concentrations of 1000, 100, 10, 1, 0.1 and 0.01 μM, respectively. For JAK1, these solutions of the test compound at the six concentrations 10 mM, 1000 μM, 100 μM, 10 μM, 1 μM and 0.1 μM were used. For JAK2 and JAK3, these solutions of the test compound at the six concentrations 1000 μM, 100 μM, 10 μM, 1 μM, 0.1 μM and 0.01 μM were used. The test compound solutions were diluted further to 20-fold with an assay buffer to obtain a sample solution. 15 mM Tris-HCl (pH7.5), 0.01 (v/v) % Tween-20 and 1 mM dithiothreitol were used as an assay buffer. DMSO was diluted to 20-fold with the assay buffer and was used as a negative control.
(§3) 2. JAK Tyrosine Kinase Inhibitory Activity in the Presence of 1 mM Atp
(§4) The activity was determined by ELISA method. Each of the sample solutions was added to a streptavidine coated 96-well plate (DELFIA Strip Plate 8×12 well, PerkinElmer) at 10 μL/well (n=2). […] Finally, JAK tyrosine kinase (Carna Biosciences, Inc.), which was previously diluted with the assay buffer to 7.5 nM for JAK1 and 0.75 nM for JAK2 and JAK3, was added to the plate at 20 μL/well, and the plate was incubated at 30° C. for 1 h. The plate was washed four times with buffer (50 mM Tris-HCl (pH 7.5), 150 mM NaCl, 0.02 (v/v) % Tween-20). A blocking buffer (0.1% Bovine Serum Albumin, 50 mM Tris-HCl (pH 7.5), 150 mM NaCl, 0.02 (v/v) % Tween-20) was added to the plate at 150 μL/well and the plate was blocked at 30° C. for 1 h. The blocking buffer was removed, and a horse radish peroxidase-labeled anti-phosphorylated tyrosine antibody (BD Biosciences, Inc.) (diluted to 10000-fold with the blocking buffer) was added to the plate at 100 μL/well, and the plate was incubated at 30° C. for 30 min. The plate was washed with the washing buffer four times, and 3,3′,5,5′-tetramethylbenizidine solution (Nacalai Tesque) was added to the plate at 100 μL/well to develop the color for 10 minutes. To the plate was added 0.1 M sulfuric acid at 100 μL/well to stop the reaction. The absorbance at 450 nm was measured using a microplate reader (BIO-RAD).
(§5) 3. Analysis of the Results

The target of a further experiment is T2, JAK1 (Homo sapiens, UniProt P23458).
T2 construct: purchased Carna Biosciences, Inc
T2 sequence (P23458 whole entry): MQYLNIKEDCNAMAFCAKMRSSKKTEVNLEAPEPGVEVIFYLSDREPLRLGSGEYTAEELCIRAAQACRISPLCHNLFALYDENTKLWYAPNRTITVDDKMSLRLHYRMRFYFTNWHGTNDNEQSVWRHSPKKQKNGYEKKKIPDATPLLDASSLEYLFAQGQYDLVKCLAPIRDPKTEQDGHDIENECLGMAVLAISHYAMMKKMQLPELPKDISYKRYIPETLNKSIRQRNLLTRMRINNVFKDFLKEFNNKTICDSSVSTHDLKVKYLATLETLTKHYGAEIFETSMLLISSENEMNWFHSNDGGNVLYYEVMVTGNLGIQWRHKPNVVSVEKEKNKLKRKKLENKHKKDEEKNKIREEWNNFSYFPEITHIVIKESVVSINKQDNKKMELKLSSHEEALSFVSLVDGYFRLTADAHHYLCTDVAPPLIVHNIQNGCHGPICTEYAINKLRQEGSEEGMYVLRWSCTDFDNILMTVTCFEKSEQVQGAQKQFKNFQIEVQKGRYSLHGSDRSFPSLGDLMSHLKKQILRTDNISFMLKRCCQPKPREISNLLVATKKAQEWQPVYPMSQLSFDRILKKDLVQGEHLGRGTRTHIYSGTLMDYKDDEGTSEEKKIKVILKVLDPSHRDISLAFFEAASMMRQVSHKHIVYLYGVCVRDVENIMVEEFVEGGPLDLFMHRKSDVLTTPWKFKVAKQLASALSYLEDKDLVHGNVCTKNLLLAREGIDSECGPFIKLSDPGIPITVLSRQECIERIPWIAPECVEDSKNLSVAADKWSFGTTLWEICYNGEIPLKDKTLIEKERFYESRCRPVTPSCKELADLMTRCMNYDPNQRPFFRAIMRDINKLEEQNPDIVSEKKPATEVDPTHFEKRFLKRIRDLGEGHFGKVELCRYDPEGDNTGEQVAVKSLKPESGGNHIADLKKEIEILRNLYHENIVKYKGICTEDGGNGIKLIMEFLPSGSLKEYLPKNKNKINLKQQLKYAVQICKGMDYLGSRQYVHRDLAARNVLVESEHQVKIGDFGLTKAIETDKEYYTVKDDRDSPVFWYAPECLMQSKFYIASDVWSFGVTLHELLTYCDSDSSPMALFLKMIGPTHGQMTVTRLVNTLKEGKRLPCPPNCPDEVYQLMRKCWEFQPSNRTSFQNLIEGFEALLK
Description: JAK tyrosine kinase inhibitory activity in the presence of 1 mM ATP (ELISA), JAK1. As to the method:
as §1, §2, §3, §4, §5

The next experiment deals with T3, JAK3 (Homo sapiens, UniProt P52333).
T3 construct: purchased Carna Biosciences, Inc
T3 sequence (P52333 1-1124): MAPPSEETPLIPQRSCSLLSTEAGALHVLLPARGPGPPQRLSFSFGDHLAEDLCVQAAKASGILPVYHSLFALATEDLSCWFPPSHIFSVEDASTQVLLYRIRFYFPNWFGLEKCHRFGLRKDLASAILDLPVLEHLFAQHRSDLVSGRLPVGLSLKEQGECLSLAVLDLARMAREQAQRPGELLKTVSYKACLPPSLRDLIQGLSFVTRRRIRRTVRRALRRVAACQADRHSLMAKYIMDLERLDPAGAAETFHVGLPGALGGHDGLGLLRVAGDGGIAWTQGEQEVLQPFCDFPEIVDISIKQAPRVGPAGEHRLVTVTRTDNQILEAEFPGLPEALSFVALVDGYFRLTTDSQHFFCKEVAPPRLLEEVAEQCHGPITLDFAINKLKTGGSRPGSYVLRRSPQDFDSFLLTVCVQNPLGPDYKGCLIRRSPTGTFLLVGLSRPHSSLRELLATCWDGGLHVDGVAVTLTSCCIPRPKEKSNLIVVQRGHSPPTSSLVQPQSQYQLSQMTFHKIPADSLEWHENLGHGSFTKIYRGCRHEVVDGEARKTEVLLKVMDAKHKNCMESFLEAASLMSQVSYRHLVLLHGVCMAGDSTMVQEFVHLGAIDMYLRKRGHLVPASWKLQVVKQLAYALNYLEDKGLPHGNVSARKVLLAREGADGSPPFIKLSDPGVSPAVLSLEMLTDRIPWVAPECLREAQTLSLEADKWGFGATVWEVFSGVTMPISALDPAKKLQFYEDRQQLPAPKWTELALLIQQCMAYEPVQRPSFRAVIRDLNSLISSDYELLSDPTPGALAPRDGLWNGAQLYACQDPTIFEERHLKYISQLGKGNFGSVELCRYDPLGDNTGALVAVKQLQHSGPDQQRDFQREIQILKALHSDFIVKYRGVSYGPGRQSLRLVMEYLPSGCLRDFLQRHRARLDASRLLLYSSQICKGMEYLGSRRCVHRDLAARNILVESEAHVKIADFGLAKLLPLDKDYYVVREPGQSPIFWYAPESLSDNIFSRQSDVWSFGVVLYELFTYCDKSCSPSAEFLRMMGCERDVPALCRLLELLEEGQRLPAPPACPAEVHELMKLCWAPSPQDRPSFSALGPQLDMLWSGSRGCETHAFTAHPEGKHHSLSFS
The experiment in a line: JAK tyrosine kinase inhibitory activity in the presence of 1 mM ATP (ELISA), JAK3. As for the experimental part:
as §1, §2, §3, §4, §5

Bounds are passed on as bounds.

T1 sequence (O60674 whole entry): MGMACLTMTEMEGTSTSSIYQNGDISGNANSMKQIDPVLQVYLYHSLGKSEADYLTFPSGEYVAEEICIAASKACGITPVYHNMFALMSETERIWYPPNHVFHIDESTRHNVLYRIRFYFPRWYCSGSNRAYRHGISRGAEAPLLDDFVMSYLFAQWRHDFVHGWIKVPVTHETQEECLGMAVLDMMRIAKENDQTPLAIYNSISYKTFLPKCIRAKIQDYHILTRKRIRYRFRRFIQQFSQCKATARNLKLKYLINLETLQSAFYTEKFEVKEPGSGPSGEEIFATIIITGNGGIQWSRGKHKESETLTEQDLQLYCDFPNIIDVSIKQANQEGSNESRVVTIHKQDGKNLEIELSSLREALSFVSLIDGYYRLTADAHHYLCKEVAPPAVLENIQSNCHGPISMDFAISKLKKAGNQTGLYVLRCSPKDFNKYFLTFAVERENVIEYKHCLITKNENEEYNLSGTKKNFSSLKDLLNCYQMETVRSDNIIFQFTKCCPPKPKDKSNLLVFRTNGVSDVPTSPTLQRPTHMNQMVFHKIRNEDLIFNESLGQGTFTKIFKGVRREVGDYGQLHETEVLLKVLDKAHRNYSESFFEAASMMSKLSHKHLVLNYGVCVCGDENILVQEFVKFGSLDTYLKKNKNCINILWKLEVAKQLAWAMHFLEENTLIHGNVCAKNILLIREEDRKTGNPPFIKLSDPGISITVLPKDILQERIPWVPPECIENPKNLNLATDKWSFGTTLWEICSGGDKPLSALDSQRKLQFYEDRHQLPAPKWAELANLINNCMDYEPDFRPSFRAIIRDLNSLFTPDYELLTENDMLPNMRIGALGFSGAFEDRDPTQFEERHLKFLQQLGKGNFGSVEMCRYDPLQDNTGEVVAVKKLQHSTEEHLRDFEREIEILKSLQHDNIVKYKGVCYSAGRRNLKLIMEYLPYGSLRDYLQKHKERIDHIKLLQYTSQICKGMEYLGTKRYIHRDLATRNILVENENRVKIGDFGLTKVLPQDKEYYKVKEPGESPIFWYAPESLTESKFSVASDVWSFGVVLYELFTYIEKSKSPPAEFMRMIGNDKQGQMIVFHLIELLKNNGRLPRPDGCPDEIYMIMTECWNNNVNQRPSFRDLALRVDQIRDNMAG

Regarding `CC(=O)NC1CCN(C(=O)c2cc(N[C@@H](C)C3CC3)nc(-c3cnn4ccsc34)n2)CC1` [Example 2, N-(1-{[6-{[(1S)-1-Cyclopropylethyl]amino}-2-(pyrazolo[5,1-b][1,3]thiazol-7-yl)pyrimidin-4-yl]carbonyl}piperidin-4-yl)acetamide], the IC50 at JAK2 stood at 2100 nM; on JAK1 it was 570 nM; at JAK3, 2700 nM.
The corresponding values for `C[C@H](Nc1cc(C(=O)N2CCC(NC(=O)C3CC3)CC2)nc(-c2cnn3ccsc23)n1)C(C)(C)C` [Example 3, N-(1-{[6-{[(2S)-3,3-Dimethylbutan-2-yl]amino}-2-(pyrazolo[5,1-b][1,3]thiazol-7-yl)pyrimidin-4-yl]carbonyl}piperidin-4-yl)cyclopropanecarboxamide] are 1400 nM, 62 nM and 3200 nM.
The corresponding values for `CC(=O)NC1CCN(C(=O)c2cc(N[C@@H](C)C(C)(C)C)nc(-c3cnn4ccsc34)n2)CC1` [Example 4, N-(1-{[6-{[(2S)-3,3-Dimethylbutan-2-yl]amino}-2-(pyrazolo[5,1-b][1,3]thiazol-7-yl)pyrimidin-4-yl]carbonyl}piperidin-4-yl)acetamide] are 730 nM, 210 nM and 3000 nM.
For `CN(c1cc(C(=O)N2CCC(NC(=O)C3CC3)CC2)nc(-c2cnn3ccsc23)n1)[C@H]1CCC[C@@H]1OC(F)F` [Example 5, N-(1-{[6-{[(1S,2S)-2-(Difluoromethoxy)cyclopentyl](methyl)amino}-2-(pyrazolo[5,1-b][1,3]thiazol-7-yl)pyrimidin-4-yl]carbonyl}piperidin-4-yl)cyclopropanecarboxamide] the same measures were 2500 nM, 130 nM and 1400 nM.
Regarding `CC(=O)NC1CCN(C(=O)c2nc(-c3cnn4ccsc34)nc(N[C@@H](C)C(C)(C)C)c2C)CC1` [Example 6, N-(1-{[6-{[(2S)-3,3-Dimethylbutan-2-yl]amino}-5-methyl-2-(pyrazolo[5,1-b][1,3]thiazol-7-yl)pyrimidin-4-yl]carbonyl}piperidin-4-yl)acetamide], the IC50 at JAK2 is 1800 nM; at JAK1, 240 nM; at JAK3, 2800 nM.
The corresponding values for `Cc1c(N[C@@H](C)C(C)(C)C)nc(-c2cnn3ccsc23)nc1C(=O)N1CCC(NC(=O)C2CC2)CC1` [Example 7, N-(1-{[6-{[(2S)-3,3-Dimethylbutan-2-yl]amino}-5-methyl-2-(pyrazolo[5,1-b][1,3]thiazol-7-yl)pyrimidin-4-yl]carbonyl}piperidin-4-yl)cyclopropanecarboxamide] are more than 10000 nM, 69 nM and 2700 nM.
With `O=C(NC1CCN(C(=O)c2cc(NCC3(COC(F)F)CC3)nc(-c3cnn4ccsc34)n2)CC1)C1CC1` [Example 8, N-[1-({6-[({1-[(Difluoromethoxy)methyl]cyclopropyl}methyl)amino]-2-(pyrazolo[5,1-b][1,3]thiazol-7-yl)pyrimidin-4-yl}carbonyl)piperidin-4-yl]cyclopropanecarboxamide], the IC50 at JAK2 amounted to 2400 nM; at JAK1, 52 nM; at JAK3, 3800 nM.
The corresponding values for `O=C(NC1CCN(C(=O)c2cc(NCC3(COC(F)F)CCC3)nc(-c3cnn4ccsc34)n2)CC1)C1CC1` [Example 9, N-[1-({6-[({1-[(Difluoromethoxy)methyl]cyclobutyl}methyl)amino]-2-(pyrazolo[5,1-b][1,3]thiazol-7-yl)pyrimidin-4-yl}carbonyl)piperidin-4-yl]cyclopropanecarboxamide] are 960 nM, 19 nM and 2000 nM.
For `O=C(NC1CCN(C(=O)c2cc(NCC3(COC(F)F)CCOCC3)nc(-c3cnn4ccsc34)n2)CC1)C1CC1` [Example 11, N-[1-({6-[({4-[(Difluoromethoxy)methyl]tetrahydro-2H-pyran-4-yl}methyl)amino]-2-(pyrazolo[5,1-b][1,3]thiazol-7-yl)pyrimidin-4-yl}carbonyl)piperidin-4-yl]cyclopropanecarboxamide] the same measures were 2500 nM, 21 nM and 4800 nM.
As to `Cc1c(N[C@@H](C)C2CC2)nc(-c2cnn3ccsc23)nc1C(=O)N1CCC(NC(=O)C2CC2)CC1` [Example 12, N-(1-{[6-{[(1S)-1-Cyclopropylethyl]amino}-5-methyl-2-(pyrazolo[5,1-b][1,3]thiazol-7-yl)pyrimidin-4-yl]carbonyl}piperidin-4-yl)cyclopropanecarboxamide], the figures for the IC50 at JAK2, at JAK1 and on JAK3 were 2200 nM, 120 nM and 1800 nM, respectively.
The corresponding values for `CC(=O)NC1CCN(C(=O)c2nc(-c3cnn4ccsc34)nc(N[C@@H](C)C3CC3)c2C)CC1` [Example 13, N-(1-{[6-{[(1S)-1-Cyclopropylethyl]amino}-5-methyl-2-(pyrazolo[5,1-b][1,3]thiazol-7-yl)pyrimidin-4-yl]carbonyl}piperidin-4-yl)acetamide] are 2400 nM, 400 nM and 1600 nM.
Turning to `COC(=O)NC1CCN(C(=O)c2cc(N[C@H](CO)C(C)(C)C)nc(-c3cnn4ccsc34)n2)CC1` [Example 63, Methyl (1-{[6-{[(2S)-1-hydroxy-3,3-dimethylbutan-2-yl]amino}-2-(pyrazolo[5,1-b][1,3]thiazol-7-yl)pyrimidin-4-yl]carbonyl}piperidin-4-yl)carbamate], the IC50 on JAK2 worked out at 7300 nM; at JAK1, 180 nM.
For `COC(=O)NC1CCN(C(=O)c2cc(OC3CCC3)nc(-c3cnn4ccsc34)n2)CC1` [Example 65, Methyl (1-{[6-(cyclobutyloxy)-2-(pyrazolo[5,1-b][1,3]thiazol-7-yl)pyrimidin-4-yl]carbonyl}piperidin-4-yl)carbamate] the same measures were 3100 nM and 130 nM.
As for `COC(=O)NC1CCN(C(=O)c2cc(Oc3cccnc3)nc(-c3cnn4ccsc34)n2)CC1` [Example 156, Methyl (1-{[2-(pyrazolo[5,1-b][1,3]thiazol-7-yl)-6-(pyridin-3-yloxy)pyrimidin-4-yl]carbonyl}piperidin-4-yl)carbamate], the results for the IC50 at JAK2 and on JAK1 were more than 10000 nM and 820 nM, respectively.
Take `C[C@H](Nc1cc(C(=O)N2CCC(NC(=O)C3CCCC3)CC2)nc(-c2cnn3ccsc23)n1)C1CC1` [Example 166, N-1-[6-[(1S)-1-cyclopropylethyl]amino-2-(pyrazolo[5,1-b][1,3]thiazol-7-yl)pyrimidine-4-carbonyl]piperidin-4-ylcyclopentanecarboxamide]: the IC50 at JAK1 turned out to be 280 nM; on JAK3 it was 1300 nM.
